Where two headings read alike, the source gives them in different places. Marks after values point to notes of the source that are not given here.
Tests used:
[1] = test system: human keratinocytes; settings: for Amount of fluorescence measured compared with calcium chloride at equivalent molarity: 5 and 10 mM; for Fluorescence measured (FU) Mean: Table III
Description: I-Measurement of the Amount of Haluronic Acid Bound to the Surface of Keratinocytes
The following steps are performed:
15,000 human keratinocytes are inoculated in culture wells (96-well plates) in a K-SFM medium (Gibco).
2—Production of Confluent Cultures:
Incubation of the cultures for 72 hours at 37° C. under a humidity-saturated atmosphere, with 5% CO2, with renewal of the culture medium after 48 h.
3—Binding of Hyaluronic Acid:
Incubation of the cells for 4 hours at 4° C. with hyaluronic acid covalently bonded to a fluorochrome, […] (HA-FA), synthesized in the laboratory according to the technique described in “Preparation and properties of fluoresceine-labelled hyaluronate; carbohydrate research, 1975, Vol. 44, pp. 251-257”, prepared in K-SFM containing 0.2% sodium azide.
4—Evaluation of the Activity of the Test Products:
The products for which it is desired to evaluate the action on the amount of HA-FA bound by keratinocytes are added to the incubation medium at the start of incubation. Controls are carried out in the absence of the products to be evaluated and in the presence of their excipient which was used to dissolve them.
5—Nonspecific Binding of HA-FA.
In order to determine the nonspecific labelling, the same experimental conditions as in step 3 are rigorously used, but with the addition of 200 times more hyaluronic acid not labelled with a fluorochrome.
6—Fluorescence Quantification:
After the HA-FA binding medium has been removed, two rinses with PBS are carried out, after which the fluorescence bound to the keratinocytes is measured at an excitation wavelength λex 485 nm and an emission wavelength λem=538 nm.
7—Expressing the Results:
The results are expressed in fluorescence units (“specific fluorescence”), with the nonspecific fluorescence being deducted (see 5-).
To do this, the fluorescence values measured are reduced to the cellular DNA content, carried out according to the DAPI method (see III-).

[2] = test system: CD44 receptor; experiment: Functionality of the CD44 receptor: hyaluronic acid binding by keratinocytes after 48 hours of treatment, normalized to cellular DNA (protocol II-9); format: cell-based, human; settings: 0.22 mM
Description: The products whose activity on the expression of the CD44 receptor it is desired to evaluate are added to the culture medium 24 hours after inoculation of the cells. To do this, the inoculation medium is removed and replaced with an identical medium containing the test substance. The incubation then continues for 48 hours. Controls are carried out in the absence of the products to be evaluated, and in the presence of the excipient which was used to dissolve them. All the factors are otherwise equal.
9—Measurement of the functionality of the CD44 receptor.
(§1) The values thus obtained are normalized, taking account of the amount of cellular material present in the wells. To do this, the cellular DNA content is measured by the DAPI method (see protocol below).
III—Quantification of the Cellular DNA with […] Dihydrochloride (DAPI)
The quantification of the cellular DNA may be carried out directly on the cultures after quantification of the CD44 expression.
30 μl of methanol at −20° C. are added to each well for 1 min.
After rinsing twice with PBS, a 20 μg/ml DAPI solution is added over 15 minutes at ambient temperature and in darkness.
3—Fluorescence Quantification:
After rinsing twice with PBS, the fluorescence present in the wells is read with 50 μl of PBS at λ excitation=355 nm and λemission=460 nm.

[3] = test system: CD44; experiment: Expression of the hyaluronic acid receptor (CD44) at the surface of keratinocytes, anti-CD44 antibody labelling normalized to cellular DNA (protocol II); format: cell-based, human; settings: 0.22 mM
Description: II—Measurement of the Expression of the Hyaluronic Acid Receptor (CD44) at the Surface of Keratinocytes
Steps 1 and 2 are identical to steps 1 and 2 of I.
3—Binding of the cells to 2% paraformaldehyde in PBS containing calcium and magnesium for 5 minutes at ambient temperature.
4—Saturation of the Nonspecific Antigen-Antibody Binding Sites:
After rinsing twice with PBS, the cells are incubated with PBS saturation medium with calcium and magnesium supplemented with 5% v/v of calf serum and 0.05% w/v of sodium azide, for 1 hour at ambient temperature. […]
7—Fluorescence Quantification:
After rinsing twice with the saturation medium, the fluorescence present in the wells is read with 50 μl of PBS at λ excitation=544 nm and k emission=590 nm. […]
The products whose activity on the expression of the CD44 receptor it is desired to evaluate are added to the culture medium 24 hours after inoculation of the cells. […] Controls are carried out in the absence of the products to be evaluated, and in the presence of the excipient which was used to dissolve them. […]
as §1
III—Quantification of the Cellular DNA with […] Dihydrochloride (DAPI) […]
3—Fluorescence Quantification: […]

## calcium gluconate
[1]
  Amount of fluorescence measured compared with calcium chloride at equivalent molarity: significantly greater

## manganese chloride [MnCl2]
[1]
  Amount of fluorescence measured compared with calcium chloride at equivalent molarity: significantly greater

## CC(O)C(=O)[O-].[Na+] (centres unmarked) [Sodium lactate, sodium lactate]
[2]; 48 hours of treatment, control 59 ± 8.5
  Binding of hyaluronic acid to the surface of human keratinocytes Binding (FU)/cellular DNA (FU) Mean: 105 ± 24
[2]; 48 hours, versus 0 mM control
  Binding of hyaluronic acid to the surface of human keratinocytes % increase: 78%
[3]; 48 hours, versus 0 mM control
  Expression of CD44 at the surface of human keratinocytes % increase: 32%
[3]; cells treated for 48 hours, control 189 ± 28
  Expression of CD44 at the surface of human keratinocytes CD44 (FU)/cellular DNA (FU) labelling Mean: 249 ± 31

## O=C([O-])[C@H](O)[C@@H](O)[C@H](O)[C@H](O)CO.[Na+] [sodium gluconate]
[1]; sodium gluconate 10 mM with CaCl2 2.5 mM
  Fluorescence measured (FU) Mean: 27 FU
[1]; sodium gluconate 10 mM with CaCl2 5 mM
  Fluorescence measured (FU) Mean: 84* FU
[1]; sodium gluconate 10 mM with CaCl2 10 mM
  Fluorescence measured (FU) Mean: 2,186* FU
[1]; sodium gluconate 10 mM, CaCl2 0 mM
  Fluorescence measured (FU) Mean: 6 FU
[1]; relatively optimized conditions (10 mM CaCl2 / 2.5 mM sodium gluconate)
  Increase of the effects of calcium on hyaluronic acid binding, factor: ≥ 12
